Reference: US20230144824A1, “1H-PYRAZOLO[4,3-d]PYRIMIDINE COMPOUNDS AS TOLL-LIKE RECEPTOR 7 (TLR7) AGONISTS” (BRISTOL-MYERS SQUIBB COMPANY, priority 2020, published 2023)

Key:
CD69 = assay: Induction of CD69 in human whole blood; format: cell-based; details: Homo sapiens, 17 h, 100% set to 1 uM of resiquimod, average where assay performed multiple times, read-out: hWB CD69 EC50
Experimental: The induction of Type I interferon (IFN) MX-1 genes and the B-cell activation marker CD69 are downstream events that occur upon activation of the TLR7 pathway. The following is a human whole blood assay that measures their induction in response to a TLR7 agonist.
Heparinized human whole blood was harvested from human subjects and treated with test TLR7 agonist compounds at 1 mM. The blood was diluted with RPMI 1640 media and Echo was used to predot 10 nL per well giving a final concentration of 1 uM (10 nL in 10 uL of blood). After mixing on a shaker for 30 sec, the plates were covered and placed in a 37° C. chamber for o/n=17 hrs. Fixing/lysis buffer was prepared (5×->1× in H2O, warm at 37° C.; Cat #BD 558049) and kept the perm buffer (on ice) for later use.
For surface markers staining (CD69): prepared surface Abs: 0.045 ul hCD14-FITC (ThermoFisher Cat #MHCD1401)+0.6 ul hCD19-ef450 (ThermoFisher Cat #48-0198-42)+1.5 ul hCD69-PE (cat #BD555531)+0.855 ul FACS buffer. Added 3 ul/well, spin1000 rpm for 1 min and mixed on shaker for 30 sec, put on ice for 30 mins. Stop stimulation after 30 minutes with 70 uL of prewarmed 1× fix/lysis buffer and use Feliex mate to resuspend (15 times, change tips for each plate) and incubate at 37 C for 10 minutes.
Centrifuge at 2000 rpm for 5 minutes aspirate with HCS plate washer, mix on shaker for 30 sec and then wash with 70 uL in dPBS and pelleted 2×s (2000 rpm for 5 min) and 50 ul wash in FACS buffer pelleted 1×s (2000 rpm for 5 min). Mix on shaker for 30 sec. For Intracellular markers staining (MX-1): Add 50 ul of BD Perm buffer III and mix on shaker for 30 sec. Incubate on ice for 30 minutes (in the dark). Wash with 50 uL of FACS buffer 2×(spin @2300 rpm×5 min after perm) followed by mixing on shaker for 30 sec. Resuspended in 20 ul of FACS buffer containing MX1 antibody ( )(4812)-Alexa 647: Novus Biologicals #NBP2-43704AF647) 20 ul FACS bf+0.8 ul hIgG+0.04 ul MX-1. Spin 1000 rpm for 1 min, mix on shaker for 30 se and the samples were incubated at RT in the dark for 45 minutes followed by washing 2×FACS buffer (spin @2300 rpm×5 min after perm). Resuspend 20 ul (35 uL total per well) of FACS buffer and cover with foil and place in 4° C. to read the following day. Plates were read on iQuePlus. The results were loaded into toolset and IC50 curves are generated in curve master. The y-axis 100% is set to 1 uM of resiquimod.

human TLR7 = molecular target: T1, human TLR7 (Homo sapiens, UniProt Q9NYK1); assay: Human TLR7 agonist activity assay (HEK-Blue TLR7 SEAP reporter); format: cell-based; details: HEK-Blue TLR7 cells, 18 h treatment, average where assay performed multiple times, read-out: hTLR7 Agonism EC50
T1 construct: host or cells: HEK-Blue TLR7 cells (engineered human embryonic kidney cells)
T1 sequence (Q9NYK1 27-1049): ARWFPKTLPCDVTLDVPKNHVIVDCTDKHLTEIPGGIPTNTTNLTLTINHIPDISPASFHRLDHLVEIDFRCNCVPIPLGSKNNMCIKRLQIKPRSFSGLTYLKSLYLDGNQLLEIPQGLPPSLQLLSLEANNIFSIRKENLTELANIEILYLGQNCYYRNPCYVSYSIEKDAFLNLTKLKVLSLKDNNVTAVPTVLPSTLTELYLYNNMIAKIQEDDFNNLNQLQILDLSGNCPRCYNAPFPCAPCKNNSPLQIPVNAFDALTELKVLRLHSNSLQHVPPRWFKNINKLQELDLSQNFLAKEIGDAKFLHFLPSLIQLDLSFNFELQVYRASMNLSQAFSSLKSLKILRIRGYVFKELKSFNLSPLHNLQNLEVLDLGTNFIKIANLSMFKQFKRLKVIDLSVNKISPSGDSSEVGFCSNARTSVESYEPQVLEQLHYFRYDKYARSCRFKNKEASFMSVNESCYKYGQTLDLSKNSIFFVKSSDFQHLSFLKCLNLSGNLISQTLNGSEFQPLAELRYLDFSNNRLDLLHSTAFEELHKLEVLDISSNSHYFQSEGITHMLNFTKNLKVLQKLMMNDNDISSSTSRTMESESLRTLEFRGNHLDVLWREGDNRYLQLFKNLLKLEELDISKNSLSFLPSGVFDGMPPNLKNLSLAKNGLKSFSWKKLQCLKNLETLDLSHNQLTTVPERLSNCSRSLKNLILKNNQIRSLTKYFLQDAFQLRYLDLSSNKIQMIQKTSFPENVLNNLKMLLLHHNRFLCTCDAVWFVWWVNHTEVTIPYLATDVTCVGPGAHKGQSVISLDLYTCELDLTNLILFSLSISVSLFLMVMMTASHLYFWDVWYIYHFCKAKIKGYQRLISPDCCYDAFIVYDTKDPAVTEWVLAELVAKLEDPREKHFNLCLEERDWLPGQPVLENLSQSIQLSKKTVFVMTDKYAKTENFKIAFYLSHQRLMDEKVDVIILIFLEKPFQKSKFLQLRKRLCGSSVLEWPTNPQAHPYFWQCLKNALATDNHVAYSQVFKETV
Experimental: This procedure describes a method for assaying human TLR7 (hTLR7) agonist activity of the compounds disclosed in this specification.
HEK-Blue™ TLR7 cells were added to each well of a 384-well tissue-culture plate (15,000 cells per well) and incubated 16-18 h at 37° C., 5% CO2. Compounds (100 nl) were dispensed into wells containing the HEK-Blue™ TLR cells and the treated cells were incubated at 37° C., 5% CO2. After 18 h treatment ten microliters of freshly-prepared Quanti-Blue™ reagent (Invivogen) was added to each well, incubated for 30 min (37° C., 5% CO2) and SEAP levels measured using an Envision plate reader (OD=620 nm). The half maximal effective concentration values (EC50; compound concentration which induced a response halfway between the assay baseline and maximum) were calculated.

Compound	EC50 (CD69) [nM]	EC50 (human TLR7) [nM]
CCC[C@@H](CCO)Nc1nc(N)nc2cnn(Cc3ncc(C4CCCCCN4)cc3OC)c12 (mixture of isomers) [Compound 183, (3S)-3-[(5-amino-1-{[5-(azepan-2-yl)-3-methoxypyridin-2-yl]methyl}-1H-pyrazolo[4,3-d]pyrimidin-7-yl)amino]hexan-1-ol]	2.8	89.9
CCC[C@@H](CCO)Nc1nc(N)nc2cnn(Cc3ncc(C4C[C@@H](C#N)CN4)cc3OC)c12 (mixture of isomers) [Compound 185, (3R)-5-{6-[(5-amino-7-{[(3S)-1-hydroxyhexan-3-yl]amino}-1H-pyrazolo[4,3-d]pyrimidin-1-yl)methyl]-5-methoxypyridin-3-yl}pyrrolidine-3-carbonitrile]	27.8	399
CCCCNc1nc(N)nc2cnn(Cc3ncc(C4CCNCC4)cc3OC)c12 [Compound 101, N7-butyl-1-{[3-methoxy-5-(piperidin-4-yl)pyridin-2-yl]methyl}-1H-pyrazolo[4,3-d]pyrimidine-5,7-diamine]	9.3	56.6
CCCCNc1nc(N)nc2cnn(Cc3ncc(C4CCN(C5COC5)CC4)cc3OC)c12 [Compound 102, N7-butyl-1-({3-methoxy-5-[1-(oxetan-3-yl)piperidin-4-yl]pyridin-2-yl}methyl)-1H-pyrazolo[4,3-d]pyrimidine-5,7-diamine]	87.8	120
CCCCNc1nc(N)nc2cnn(Cc3ncc(C4CCN(S(C)(=O)=O)CC4)cc3OC)c12 [Compound 103, N7-butyl-1-{[5-(1-methanesulfonylpiperidin-4-yl)-3-methoxypyridin-2-yl]methyl}-1H-pyrazolo[4,3-d]pyrimidine-5,7-diamine]	562	204
CCCCNc1nc(N)nc2cnn(Cc3ncc(C4CCN(C(=O)CCOC)CC4)cc3OC)c12 [Compound 104, 1-[4-(6-{[5-amino-7-(butylamino)-1H-pyrazolo[4,3-d]pyrimidin-1-yl]methyl}-5-methoxypyridin-3-yl)piperidin-1-yl]-3-methoxypropan-1-one]	213	445
CCCCNc1nc(N)nc2cnn(Cc3ncc(C4CCN(C(=O)CCO)CC4)cc3OC)c12 [Compound 105, 1-[4-(6-{[5-amino-7-(butylamino)-1H-pyrazolo[4,3-d]pyrimidin-1-yl]methyl}-5-methoxypyridin-3-yl)piperidin-1-yl]-3-hydroxypropan-1-one]	159	817
CCCCNc1nc(N)nc2c(C)nn(Cc3ncc(C4CCNCC4)cc3OC)c12 [Compound 106, N7-butyl-1-{[3-methoxy-5-(piperidin-4-yl)pyridin-2-yl]methyl}-3-methyl-1H-pyrazolo[4,3-d]pyrimidine-5,7-diamine]	150	549
CCCCNc1nc(N)nc2c(C3CC3)nn(Cc3ncc(C4CCN(C)CC4)cc3OC)c12 [Compound 107, N7-butyl-3-cyclopropyl-1-{[3-methoxy-5-(1-methylpiperidin-4-yl)pyridin-2-yl]methyl}-1H-pyrazolo[4,3-d]pyrimidine-5,7-diamine]	444	383
CCCCNc1nc(N)nc2cnn(Cc3ncc(C4CCN(C5CCC5)CC4)cc3OC)c12 [Compound 108, N7-butyl-1-{[5-(1-cyclobutylpiperidin-4-yl)-3-methoxypyridin-2-yl]methyl}-1H-pyrazolo[4,3-d]pyrimidine-5,7-diamine]	4.8	51.9
CCCCNc1nc(N)nc2cnn(Cc3ncc(C4CCN(C(=O)CCN(C)C)CC4)cc3OC)c12 [Compound 109, 1-[4-(6-{[5-amino-7-(butylamino)-1H-pyrazolo[4,3-d]pyrimidin-1-yl]methyl}-5-methoxypyridin-3-yl)piperidin-1-yl]-3-(dimethylamino)propan-1-one]	14.5	215
CCCCNc1nc(N)nc2cnn(Cc3ncc(C4CCN(C(=O)CC(C)(C)O)CC4)cc3OC)c12 [Compound 110, 1-[4-(6-{[5-amino-7-(butylamino)-1H-pyrazolo[4,3-d]pyrimidin-1-yl]methyl}-5-methoxypyridin-3-yl)piperidin-1-yl]-3-hydroxy-3-methylbutan-1-one]	382	343
CCCCNc1nc(N)nc2cnn(Cc3ncc(C4CCN(C)CC4)cc3OC)c12 [Compound 111, N7-butyl-1-{[3-methoxy-5-(1-methylpiperidin-4-yl)pyridin-2-yl]methyl}-1H-pyrazolo[4,3-d]pyrimidine-5,7-diamine]	5.4	65.3
CCCCNc1nc(N)nc2cnn(Cc3ncc(C4CCN(C5CCOCC5)CC4)cc3OC)c12 [Compound 112, N7-butyl-1-({3-methoxy-5-[1-(oxan-4-yl)piperidin-4-yl]pyridin-2-yl}methyl)-1H-pyrazolo[4,3-d]pyrimidine-5,7-diamine]	5.9	34
CCCCNc1nc(N)nc2cnn(Cc3ncc(C4CCN(C(C)C)CC4)cc3OC)c12 [Compound 113, N7-butyl-1-({3-methoxy-5-[1-(propan-2-yl)piperidin-4-yl]pyridin-2-yl}methyl)-1H-pyrazolo[4,3-d]pyrimidine-5,7-diamine]	9.4	47.2
CCCCNc1nc(N)nc2cnn(Cc3ncc(C4CCN(CCO)CC4)cc3OC)c12 [Compound 114, 2-[4-(6-{[5-amino-7-(butylamino)-1H-pyrazolo[4,3-d]pyrimidin-1-yl]methyl}-5-methoxypyridin-3-yl)piperidin-1-yl]ethan-1-ol]	3.6	49.9
CCCCNc1nc(N)nc2cnn(Cc3ncc(C4CCN(C5CNC5)CC4)cc3OC)c12 [Compound 115, 1-({5-[1-(azetidin-3-yl)piperidin-4-yl]-3-methoxypyridin-2-yl}methyl)-N7-butyl-1H-pyrazolo[4,3-d]pyrimidine-5,7-diamine]	64.7	447
